Key:
Assay in all cases: Test 1A glasshouse assay, post-emergence herbicidal activity
Assay type in all cases: in vivo
[1] = system: Alopecurus myosuroides (ALOMY); settings: Alopecurus myosuroides, 312 h, application rate 250 g/ha, 13 days after application, visual (100%=total damage; 0%=no damage), read-out: Post-emergence Herbicidal Activity (% Phytotoxicity) ALOMY
Experimental: (§1) Seeds of a variety of test species were sown in standard soil in pots. After cultivation for one day (pre-emergence) or after 8 days cultivation (post-emergence) under controlled conditions in a glasshouse (at 24/16° C., day/night; 14 hours light; 65% humidity), the plants were sprayed with an aqueous spray solution derived from the formulation of the technical active ingredient in acetone/water (50:50) solution containing 0.5% Tween 20 (polyoxyethelyene sorbitan monolaurate, CAS RN 9005-64-5). The test plants were then grown under controlled conditions in a glasshouse (at 24/16° C., day/night; 14 hours light; 65% humidity) and watered twice daily. 13 days after application of the test herbicide, for pre- and post-emergence, the test was evaluated visually for percentage phytotoxicity to the plant (where 100%=total damage to plant; 0%=no damage to plant).
(§2) Lolium perenne (LOLPE), Alopecurus myosuroides (ALOMY), Echinochloa crus-galli (ECHCG), and Avena fatua (AVEFA); these are all grassy monocotyledonous weeds.

[2] = system: Lolium perenne (LOLPE); settings: Lolium perenne, 312 h, application rate 250 g/ha, 13 days after application, visual (100%=total damage; 0%=no damage), read-out: Post-emergence Herbicidal Activity (% Phytotoxicity) LOLPE
Experimental: as §1, §2

[3] = system: Echinochloa crus-galli (ECHCG); settings: Echinochloa crus-galli, 312 h, application rate 250 g/ha, 13 days after application, visual (100%=total damage; 0%=no damage), read-out: Post-emergence Herbicidal Activity (% Phytotoxicity) ECHCG
Experimental: as §1, §2

[4] = system: Avena fatua (AVEFA); settings: Avena fatua, 312 h, application rate 250 g/ha, 13 days after application, visual (100%=total damage; 0%=no damage), read-out: Post-emergence Herbicidal Activity (% Phytotoxicity) AVEFA
Experimental: as §1, §2

SMILES	pest or weed control at 250 g/ha [1] [%]	pest or weed control at 250 g/ha [2] [%]	pest or weed control at 250 g/ha [3] [%]	pest or weed control at 250 g/ha [4] [%]
Cc1cc(C)c(C2C(=O)CC(CCNC(=O)c3ccsc3)C2=O)c(C)c1 (centres unmarked) [Compound A4]	70	80	100	60
Cc1cc(C)c(C2C(=O)CC(CCNC(=O)c3cccs3)C2=O)c(C)c1 (centres unmarked) [Compound A5]	50	70	60	30
Cc1cc(C)c(C2C(=O)CC(CCNC(=O)c3ccc(Cl)c(Cl)c3)C2=O)c(C)c1 (centres unmarked) [Compound A6]	30	90	90	60
Cc1cc(C)c(C2C(=O)CC(CCNC(=O)c3ccco3)C2=O)c(C)c1 (centres unmarked) [Compound A7]	60	60	90	50
Cc1cc(C)c(C2C(=O)CC(CCNC(=O)C3CCC3)C2=O)c(C)c1 (centres unmarked) [Compound A8]	60	90	80	70
Cc1cc(C)c(C2C(=O)CC(CCNC(=O)C3CCCC3)C2=O)c(C)c1 (centres unmarked) [Compound A9]	60	80	70	50
CCC(=O)NCCC1CC(=O)C(c2c(C)cc(C)cc2C)C1=O (centres unmarked) [Compound A10]	60	70	50	70
COc1ccccc1C(=O)NCCC1CC(=O)C(c2c(C)cc(C)cc2C)C1=O (centres unmarked) [Compound A11]	70	100	100	70
Cc1cc(C)c(C2C(=O)CC(CCNC(=O)c3ccc(C(F)(F)F)cc3)C2=O)c(C)c1 (centres unmarked) [Compound A12]	80	100	100	100
Cc1cc(C)c(C2C(=O)CC(CCNC(=O)c3ccc(F)c(Cl)c3)C2=O)c(C)c1 (centres unmarked) [Compound A14]	60	70	100	70
Cc1cc(C)c(C2C(=O)CC(CCNC(=O)c3ccc(OC(F)(F)F)cc3)C2=O)c(C)c1 (centres unmarked) [Compound A15]	60	90	100	90
Cc1cc(C)c(C2C(=O)CC(CCNC(=O)c3ccoc3)C2=O)c(C)c1 (centres unmarked) [Compound A16]	60	60	50	50
Cc1cc(C)c(C2C(=O)CC(CCNC(=O)c3ccc(F)cc3F)C2=O)c(C)c1 (centres unmarked) [Compound A17]	80	100	100	90
COc1ccc(C(=O)NCCC2CC(=O)C(c3c(C)cc(C)cc3C)C2=O)cc1 (centres unmarked) [Compound A18]	60	90	100	80
Cc1cc(C)c(C2C(=O)CC(CCNC(=O)c3ccccc3Cl)C2=O)c(C)c1 (centres unmarked) [Compound A20]	70	100	100	70
CCC(CC1CC(=O)C(c2c(C)cc(C)cc2C)C1=O)NC(=O)c1ccc(F)cc1 (centres unmarked) [Compound A21]	90	100	100	90
Cc1cc(C)c(C2C(=O)CC(CCNC(=O)c3ccc(Cl)nc3)C2=O)c(C)c1 (centres unmarked) [Compound A22]	70	80	80	80
